Drawing on US20240109865A1, “INDAZOLE COMPOUNDS AS KINASE INHIBITORS” (TYRA BIOSCIENCES, INC., priority 2020, published 2024), this text covers Kd for 14 compounds.

Common to all, as to assay: Kinase assay, binding constants (Kd), kinase-tagged T7 phage, qPCR
In experiment [1] the target is FGFR1 (Homo sapiens (Human), UniProt P11362). The procedure, abridged:
(§1)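 Competition binding: T7 phage-tagged kinase + biotin-ligand beads + compound (11 pts, 3-fold, 0.9% DMSO). Elution 30 min RT with free ligand; qPCR quantitation. Kd via Hill fit, slope −1.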

Experiment [2] has as its target FGFR3 (Homo sapiens (Human), UniProt P22607). The procedure, abridged:
as §1

Experiment [3] deals with FGFR2 (Homo sapiens (Human), UniProt P21802). The procedure, abridged:
as §1

The target in experiment [4] is FGFR4 (Homo sapiens (Human), UniProt P22455). The procedure, abridged:
as §1

Experiment [5] has as its target FGFR3 (V555M) (Homo sapiens (Human), UniProt P22607, V555M). As to conditions: V555M mutant. The procedure, abridged:
as §1

Structures are written as SMILES.

Sequence of FGFR1 (P11362 22-822): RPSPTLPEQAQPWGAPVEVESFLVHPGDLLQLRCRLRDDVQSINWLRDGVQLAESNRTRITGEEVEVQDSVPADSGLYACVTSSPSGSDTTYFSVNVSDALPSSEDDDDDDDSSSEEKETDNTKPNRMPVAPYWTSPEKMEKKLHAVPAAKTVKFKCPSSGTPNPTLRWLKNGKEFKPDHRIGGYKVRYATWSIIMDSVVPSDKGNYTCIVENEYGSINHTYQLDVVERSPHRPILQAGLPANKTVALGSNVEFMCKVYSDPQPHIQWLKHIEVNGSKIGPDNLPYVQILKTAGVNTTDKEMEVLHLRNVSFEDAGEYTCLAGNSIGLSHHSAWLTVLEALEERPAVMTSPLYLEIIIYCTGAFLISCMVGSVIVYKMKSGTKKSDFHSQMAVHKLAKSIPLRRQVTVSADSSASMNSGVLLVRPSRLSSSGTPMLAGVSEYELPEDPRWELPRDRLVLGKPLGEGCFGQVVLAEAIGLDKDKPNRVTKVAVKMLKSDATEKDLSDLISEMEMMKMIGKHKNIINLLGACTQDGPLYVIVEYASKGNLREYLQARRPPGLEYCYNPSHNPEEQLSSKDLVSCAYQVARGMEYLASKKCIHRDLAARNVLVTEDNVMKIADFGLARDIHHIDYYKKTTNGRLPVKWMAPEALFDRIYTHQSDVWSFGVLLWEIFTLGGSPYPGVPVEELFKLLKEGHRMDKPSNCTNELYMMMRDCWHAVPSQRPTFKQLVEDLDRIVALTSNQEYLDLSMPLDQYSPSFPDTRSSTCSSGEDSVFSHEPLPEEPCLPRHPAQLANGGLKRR
Sequence of FGFR4 (P22455 22-802): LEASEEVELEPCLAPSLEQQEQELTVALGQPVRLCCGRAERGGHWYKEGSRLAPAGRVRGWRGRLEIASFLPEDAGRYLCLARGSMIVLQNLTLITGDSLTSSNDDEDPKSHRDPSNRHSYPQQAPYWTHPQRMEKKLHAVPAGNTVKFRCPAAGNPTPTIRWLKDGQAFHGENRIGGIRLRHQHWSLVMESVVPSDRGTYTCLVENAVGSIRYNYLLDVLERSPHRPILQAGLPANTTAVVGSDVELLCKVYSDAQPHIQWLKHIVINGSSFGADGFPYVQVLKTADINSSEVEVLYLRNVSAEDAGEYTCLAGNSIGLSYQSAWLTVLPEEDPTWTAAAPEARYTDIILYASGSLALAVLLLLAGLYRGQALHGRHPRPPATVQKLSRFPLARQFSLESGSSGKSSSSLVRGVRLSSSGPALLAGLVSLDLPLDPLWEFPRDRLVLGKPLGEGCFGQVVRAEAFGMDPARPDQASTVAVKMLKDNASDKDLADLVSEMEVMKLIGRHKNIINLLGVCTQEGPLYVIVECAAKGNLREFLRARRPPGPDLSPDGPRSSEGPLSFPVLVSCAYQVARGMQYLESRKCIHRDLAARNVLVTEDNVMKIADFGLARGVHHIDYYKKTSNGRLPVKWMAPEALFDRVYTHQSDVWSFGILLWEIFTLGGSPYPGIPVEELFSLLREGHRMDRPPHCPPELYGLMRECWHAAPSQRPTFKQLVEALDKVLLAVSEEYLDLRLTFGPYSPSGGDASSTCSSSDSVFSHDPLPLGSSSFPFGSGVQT
Sequence of FGFR3 (V555M) (P22607 23-806 V555M): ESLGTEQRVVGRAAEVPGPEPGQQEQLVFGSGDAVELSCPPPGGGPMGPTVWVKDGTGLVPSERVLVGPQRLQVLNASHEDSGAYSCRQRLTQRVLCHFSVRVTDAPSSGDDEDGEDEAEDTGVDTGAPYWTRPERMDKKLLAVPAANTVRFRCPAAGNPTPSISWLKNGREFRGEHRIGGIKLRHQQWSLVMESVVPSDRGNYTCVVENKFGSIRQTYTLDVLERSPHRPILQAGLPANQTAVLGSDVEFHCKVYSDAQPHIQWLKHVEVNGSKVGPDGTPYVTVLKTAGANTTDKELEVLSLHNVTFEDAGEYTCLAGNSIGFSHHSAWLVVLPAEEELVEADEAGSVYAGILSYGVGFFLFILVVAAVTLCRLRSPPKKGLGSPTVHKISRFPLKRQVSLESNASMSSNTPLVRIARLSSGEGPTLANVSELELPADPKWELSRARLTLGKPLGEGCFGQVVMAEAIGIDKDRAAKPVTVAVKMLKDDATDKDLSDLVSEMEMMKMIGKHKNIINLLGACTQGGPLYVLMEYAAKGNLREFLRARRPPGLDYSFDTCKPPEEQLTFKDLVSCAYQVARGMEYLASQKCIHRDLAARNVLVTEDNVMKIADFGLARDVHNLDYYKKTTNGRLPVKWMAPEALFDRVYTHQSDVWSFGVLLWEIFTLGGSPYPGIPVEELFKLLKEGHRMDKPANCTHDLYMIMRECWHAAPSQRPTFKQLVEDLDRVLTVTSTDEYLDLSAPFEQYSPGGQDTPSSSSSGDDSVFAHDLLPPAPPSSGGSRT
Sequence of FGFR3 (P22607 23-806): as the sequence (P22607 23-806 V555M) above, with M533V counted along it
Sequence of FGFR2 (P21802 22-821): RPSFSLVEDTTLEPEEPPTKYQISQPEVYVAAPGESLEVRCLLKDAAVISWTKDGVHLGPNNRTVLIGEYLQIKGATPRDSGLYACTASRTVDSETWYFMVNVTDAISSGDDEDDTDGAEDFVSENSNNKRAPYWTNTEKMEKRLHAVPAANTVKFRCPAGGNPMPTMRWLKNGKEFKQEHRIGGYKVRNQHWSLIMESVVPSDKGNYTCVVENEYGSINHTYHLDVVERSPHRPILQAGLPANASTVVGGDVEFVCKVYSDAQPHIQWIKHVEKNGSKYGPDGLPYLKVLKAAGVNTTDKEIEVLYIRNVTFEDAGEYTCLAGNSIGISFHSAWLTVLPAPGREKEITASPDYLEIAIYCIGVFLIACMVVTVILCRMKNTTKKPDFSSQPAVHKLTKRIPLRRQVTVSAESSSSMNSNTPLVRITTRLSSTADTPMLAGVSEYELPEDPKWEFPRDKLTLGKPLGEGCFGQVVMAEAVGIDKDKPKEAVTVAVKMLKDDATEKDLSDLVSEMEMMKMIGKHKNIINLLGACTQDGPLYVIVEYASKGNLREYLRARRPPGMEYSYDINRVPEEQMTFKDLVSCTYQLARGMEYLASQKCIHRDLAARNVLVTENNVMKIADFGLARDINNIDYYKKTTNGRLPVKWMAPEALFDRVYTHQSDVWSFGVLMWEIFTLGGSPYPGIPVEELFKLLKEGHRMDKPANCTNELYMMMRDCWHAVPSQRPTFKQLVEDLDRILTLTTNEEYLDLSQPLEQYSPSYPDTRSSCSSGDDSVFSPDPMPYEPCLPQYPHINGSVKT

As for `COc1cc2[nH]nc(-c3ccc(N4CC5(COC5)C4)nc3)c2cc1O[C@H](C)c1c(Cl)cnc(C)c1Cl` [Example 211, 6-[5-[5-[(1R)-1-(3,5-dichloro-2-methyl-4-pyridyl)ethoxy]-6-methoxy-1H-indazol-3-yl]-2-pyridyl]-2-oxa-6-azaspiro[3.3]heptane], the Kd in experiment [1], in experiment [2], in experiment [3], in experiment [4] and in experiment [5] was 1 to 20 nM in each case.

Turning to `Cc1ncc(Cl)c([C@@H](C)Oc2ccc3[nH]nc(-c4ccc(N5CC6(CCC6)C5)nc4)c3c2)c1Cl` [Example 212, 3-[6-(2-azaspiro[3.3]-heptan-2-yl)-3-pyridyl]-5-[(1R)-1-(3,5-dichloro-2-methyl-4-pyridyl)ethoxy]-1H-indazole], the Kd is greater than 300 nM in experiment [1]; 20 to 100 nM in experiment [2]; 100 to 300 nM in experiment [3]; 100 to 300 nM in experiment [4]; 1 to 20 nM in experiment [5].

For the compound `COc1cc2[nH]nc(-c3cnc(N4CC5CC(C4)N5CC(C)(C)O)c(C)c3)c2cc1O[C@H](C)c1c(C)cnnc1C` [Example 214, 1-(3-(5-(5-((R)-1-(3,5-dimethylpyridazin-4-yl)ethoxy)-6-methoxy-1H-indazol-3-yl)-3-methylpyridin-2-yl)-3,6-diazabicyclo[3.1.1]heptan-6-yl)-2-methylpropan-2-ol], the Kd in experiment [1], in experiment [2], in experiment [3], in experiment [4] and in experiment [5] was 1 to 20 nM throughout.

On to `Cc1ncc(Cl)c([C@@H](C)Oc2ccc3[nH]nc(-c4ccc(N5CC6(CCOC6)C5)nc4)c3c2)c1Cl` [Example 216, 2-[5-[5-[(1R)-1-(3,5-dichloro-2-methyl-4-pyridyl)ethoxy]-1H-indazol-3-yl]-2-pyridyl]-6-oxa-2-azaspiro[3.4]octane], for which the Kd fell in the range of 20 to 100 nM in experiment [1]; 1 to 20 nM in experiment [2]; 1 to 20 nM in experiment [3]; 1 to 20 nM in experiment [4]; 1 to 20 nM in experiment [5].

Consider `Cc1cc(-c2n[nH]c3ccc(O[C@H](C)c4c(Cl)cnc(C)c4Cl)cc23)cnc1N1CC2(CCOC2)C1` [Example 217, 2-[5-[5-[(1R)-1-(3,5-dichloro-2-methyl-4-pyridyl)ethoxy]-1H-indazol-3-yl]-3-methyl-2-pyridyl]-6-oxa-2-azaspiro[3.4]octane], for which the Kd lay in the range of 100 to 300 nM in experiment [1]; 1 to 20 nM in experiment [2]; 20 to 100 nM in experiment [3]; 1 to 20 nM in experiment [4]; 1 to 20 nM in experiment [5].

As to `COc1cc2[nH]nc(-c3cnc(N4CC5(COC5)C4)c(C#N)c3)c2cc1O[C@H](C)c1c(C)cnnc1C` [Example 218, (R)-5-(5-(1-(3,5-dimethylpyridazin-4-yl)ethoxy)-6-methoxy-1H-indazol-3-yl)-2-(2-oxa-6-azaspiro[3.3]heptan-6-yl)nicotinonitrile], the Kd in experiment [1] lay in the range of 20 to 100 nM; in experiment [2] it was 20 to 100 nM; in experiment [3] it was 20 to 100 nM; in experiment [4], 1 to 20 nM; in experiment [5], 1 to 20 nM.

In the case of `COc1cc2[nH]nc(-c3cnc(N4CC5(COC5)C4)c(C)c3)c2cc1O[C@H](C)c1c(C)cnnc1C` [Example 219, (R)-6-(5-(5-(1-(3,5-dimethylpyridazin-4-yl)ethoxy)-6-methoxy-1H-indazol-3-yl)-3-methylpyridin-2-yl)-2-oxa-6-azaspiro[3.3]heptane], the Kd in experiment [1] is 20 to 100 nM; in experiment [2], 1 to 20 nM; in experiment [3] it was 1 to 20 nM; in experiment [4] it was 1 to 20 nM; in experiment [5] it was 1 to 20 nM.

For `COc1cc2[nH]nc(-c3ccc(N4CCCC4)nc3)c2cc1O[C@H](C)c1c(Cl)cnc(C)c1Cl` [Example 220, 5-[(1R)-1-(3,5-dichloro-2-methyl-4-pyridyl)ethoxy]-6-methoxy-3-(6-pyrrolidin-1-yl-3-pyridyl)-1H-indazole], the Kd was 20 to 100 nM in experiment [1]; 1 to 20 nM in experiment [2]; 20 to 100 nM in experiment [3]; 1 to 20 nM in experiment [4]; 1 to 20 nM in experiment [5].

For the compound `Cc1ncc(Cl)c([C@@H](C)Oc2ccc3[nH]nc(-c4ccc(N5CC(C)(O)C5)nc4)c3c2)c1Cl` [Example 222, 1-[5-[5-[(1R)-1-(3,5-dichloro-2-methyl-4-pyridyl)ethoxy]-1H-indazol-3-yl]-2-pyridyl]-3-methyl-azetidin-3-ol], the Kd lay in the range of 20 to 100 nM in experiment [1]; 1 to 20 nM in experiment [2]; 20 to 100 nM in experiment [3]; 1 to 20 nM in experiment [4]; 1 to 20 nM in experiment [5].

Regarding `C[C@@H](Oc1ccc2[nH]nc(-c3ccc(N4CC5(CN(CC(F)(F)F)C5)C4)nc3)c2c1)c1c(Cl)cncc1Cl` [Example 224, (R)-5-(1-(3,5-dichloropyridin-4-yl)ethoxy)-3-(6-(6-(2,2,2-trifluoroethyl)-2,6-diazaspiro[3.3]heptan-2-yl)pyridin-3-yl)-1H-indazole], the Kd in experiment [1] is 1 to 20 nM; in experiment [2], 1 to 20 nM; in experiment [3], 20 to 100 nM; in experiment [4], 1 to 20 nM; in experiment [5], 1 to 20 nM.

For the compound `Cc1ncc(Cl)c([C@@H](C)Oc2ccc3[nH]nc(-c4ccc(N5CCN6C(=O)CCC6C5)nc4)c3c2)c1Cl` (stereo partly drawn) [Example 225, 2-[5-[5-[(1R)-1-(3,5-dichloro-2-methyl-4-pyridyl)ethoxy]-1H-indazol-3-yl]-2-pyridyl]-1,3,4,7,8,8a-hexahydropyrrolo[1,2-a]pyrazin-6-one], the Kd in experiment [1] lay within 20 to 100 nM; in experiment [2], 1 to 20 nM; in experiment [3], 1 to 20 nM; in experiment [4] it was 1 to 20 nM; in experiment [5], 1 to 20 nM.

Take `Cc1ncc(Cl)c([C@@H](C)Oc2ccc3[nH]nc(-c4ccc(N5CC6(CCCO6)C5)nc4)c3c2)c1Cl` [Example 226, 2-[5-[5-[(1R)-1-(3,5-dichloro-2-methyl-4-pyridyl)ethoxy]-1H-indazol-3-yl]-2-pyridyl]-5-oxa-2-azaspiro[3.4]octane]: the Kd in experiment [1] is 20 to 100 nM; in experiment [2], 1 to 20 nM; in experiment [3], 20 to 100 nM; in experiment [4] it was 20 to 100 nM; in experiment [5], 1 to 20 nM.

As to `Cc1ncc(Cl)c([C@@H](C)Oc2ccc3[nH]nc(-c4ccc(N5CC6(CC(O)C6)C5)nc4)c3c2)c1Cl` [Example 227, 2-[5-[5-[(1R)-1-(3,5-dichloro-2-methyl-4-pyridyl)ethoxy]-1H-indazol-3-yl]-2-pyridyl]-2-azaspiro[3.3]heptan-6-ol], the Kd fell in the range of 20 to 100 nM in experiment [1]; 1 to 20 nM in experiment [2]; 1 to 20 nM in experiment [3]; 1 to 20 nM in experiment [4]; 1 to 20 nM in experiment [5].

For `COc1cc2[nH]nc(-c3ccc(N4CCN5C(=O)NCC5C4)nc3)c2cc1O[C@H](C)c1c(C)cnnc1C` (stereo partly drawn) [Example 228, 7-(5-(5-((R)-1-(3,5-dimethylpyridazin-4-yl)ethoxy)-6-methoxy-1H-indazol-3-yl)pyridin-2-yl)hexahydroimidazo[1,5-a]pyrazin-3(2H)-one], the Kd in experiment [1], in experiment [2], in experiment [3], in experiment [4] and in experiment [5] was 1 to 20 nM each time.
